For twelve molecules, GI50 and TGI results are on record in PubChem BioAssay (NCI).

Holding throughout (assay): DTP human tumour cell line panel, 48 h
Test [1] concerns MCF7 breast.
For test [2], the system named is MOLT-4 leukemia.
Test [3] has as its system ACHN renal.
Test [4] deals with MDA-MB-435.
The subject of test [5] is HT29 colon.
Test [6] concerns SN12C renal.
The test system of test [7] is KM12 colon.
In test [8] the test system is UACC-62 melanoma.
Test [9] concerns HCT-15 colon.
For test [10], the system named is MALME-3M melanoma.

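Each compound was tested at five concentrations against cells in 96-well plates for 48 hours. GI50 is the concentration that inhibits growth by half. TGI marks complete inhibition of growth.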 Some results are limits rather than exact numbers.

As to `O=C1CCS/C(=N\S(=O)(=O)c2ccc(N3N=C4c5ccccc5CC4C3c3cccs3)cc2)N1C(=O)c1ccccc1` (centres undefined), the GI50 in test [1] was 9.1 µM; in [2], 5.04 µM; in test [3] it was 5.18 µM; in test [4], 22.7 µM; in test [5], 39.6 µM; in [6], 16.7 µM. The GI50 in [7] was 29.4 µM; in test [8], 6.37 µM; in [9], 15.1 µM. For the same molecule, the TGI is more than 100 µM in [1]; 77.9 µM in test [2]; 18.5 µM in [3]; 53.4 µM in test [4]; more than 100 µM in test [5]; 57.1 µM in test [6]. Further, the values for the TGI in [7], in test [8] and in [9] were 83.1 µM, 28 µM and 31.3 µM, respectively.

Regarding `COc1ccccc1-c1cc(=O)c2ccc(OC)c(OC)c2o1`, the TGI in test [10], in test [1], in test [2], in test [3], in [4] and in test [5] was more than 100 µM each time. Also, the concentration for total growth inhibition (TGI) in test [6], in test [8] and in test [9] was more than 100 µM throughout.

Consider `O=[N+]([O-])c1ccc2nc3ccccc3cc2c1`, for which the TGI was 13.3 µM in [10]; more than 100 µM in test [1]; 14.9 µM in test [3]; 3.76 µM in [4]; 4.4 µM in test [5]; 5.63 µM in test [6]. Besides, the TGI is 6.27 µM in [8] and 10 µM in test [9].

`C=C1C(=O)OC2CC(C)C3C=CC(=O)C3CC12` (centres undefined): the TGI in test [10] worked out at 4.08 µM; in test [2], 4.68 µM; in [3] it was 8.21 µM; in test [4], 12.4 µM; in [5], 4.83 µM; in test [6], 5.19 µM. Further, the values for the TGI in test [7], in test [8] and in test [9] were 18.9 µM, 3.74 µM and 4.16 µM, respectively.

Regarding `CSc1ncnc2c1CCN2`, the GI50 in [10], in [5], in test [7] and in test [8] was more than 100 µM each time. The TGI in test [10] was more than 100 µM; in test [4], 6.04 µM; in test [5], more than 100 µM; in [6] it was more than 100 µM; in test [7], more than 100 µM; in [8], more than 100 µM. In [9], this molecule returned a TGI of more than 100 µM.

`Cc1[nH]nc2c1N=C(c1ccccc1Cl)c1cc([N+](=O)[O-])ccc1N2`: the GI50 was more than 25 µM in test [10]; 0.142 µM in test [1]; 14.8 µM in [2]; 1.07 µM in test [3]; 0.979 µM in test [5]; 3.29 µM in [6]. Further, the GI50 was 0.338 µM in test [7] and 0.198 µM in test [9]. For the same molecule, the TGI in [10] was more than 25 µM; in [1], more than 25 µM; in test [2], more than 25 µM; in test [3], more than 15.3 µM; in [5] it was more than 25 µM; in test [6], more than 25 µM. In addition, the TGI in test [7] was more than 13.7 µM; in test [9], more than 25 µM.

Take `CC1(C)CC2(C)CC1CC2NC(=O)CCN1CCOCC1` (centres undefined): the TGI in [10], in [1], in [2], in test [3], in [4] and in test [5] was more than 100 µM throughout. Further, the concentration for total growth inhibition (TGI) in [6], in test [7] and in test [8] was more than 100 µM in each case.

Regarding `CCOC(=O)CSc1[nH]c(NC(=S)Nc2ccccc2)c(C(N)=O)c1C(N)=O`, the TGI in [10], in test [1], in test [2], in test [4], in test [5] and in test [6] was more than 10 µM in each case. For the same molecule, the TGI in [7], in [8] and in test [9] was more than 10 µM each time.

As for `Cc1nc(C(N)=S)sc1C(=O)C/C(=N/N)C(=O)Nc1ccc(Cl)cc1`, the TGI in test [10], in test [1], in test [2], in test [3], in [4] and in test [5] was more than 100 µM in each case. The TGI in [6], in test [7] and in [8] was more than 100 µM throughout.

For `C=CC1=C(C)C2=NC1=CC1=NC(=CC3=C(C)C4=C(O)C(C(=O)OC)C(=C5NC(=C2)C(C)C5CCC(=O)OC)C4=N3)C(CC)=C1C` (centres undefined), the TGI in test [10], in test [1], in test [3], in test [4], in test [5] and in [6] was more than 100 µM throughout. Further, the TGI in test [7], in [8] and in test [9] was more than 100 µM each time.

In the case of `NC(CC1=CCC=CC1)C(=O)O` (centres undefined), the TGI in [1], in test [2], in [3], in [4], in test [5] and in test [6] was more than 100 µM in each case. In addition, the TGI in test [7], in test [8] and in [9] was more than 100 µM in each case.

With `COc1cc(OC)c(C(=O)/C=C/c2cccc(OC(C)=O)c2)cc1CC=C(C)C`, the GI50 in test [10] is 10.6 µM; in test [1] it was 2.54 µM; in [2], 7.64 µM; in [3], 10.1 µM; in [4], 5.67 µM; in test [5], 5.92 µM. The GI50 was 9.87 µM in test [6], 7.16 µM in test [7] and 5.74 µM in [9]. Moreover, the TGI came out at 33.3 µM in test [10]; 44 µM in test [1]; 43.6 µM in test [2]; 29.2 µM in [3]; 31.1 µM in test [4]; 17.3 µM in test [5]. Further, the TGI was more than 50 µM in test [6], 14.8 µM in [7] and 14.4 µM in test [9].
